Test results published in patent US20020061836A1, “Methods for altering SXR activation using peptide mimetic HIV protease inhibitor SXR ligands” (priority 2000, published 2002).

Legend:
human VDR = target: T1, human VDR (Homo sapiens, UniProt P11473); experiment: Nuclear receptor specificity transfection assay; type: cell-based; settings: 10 μM paclitaxel
T1 construct: expressed in transfected cells; host or cells: CV-1

CV-1 cells = experiment: Potential cytotoxic effects at the concentrations and treatment times used; settings: at the indicated concentrations and treatment times
[1] = target: T2, human SXR ligand binding domain (Homo sapiens, UniProt O75469); experiment: Gal-L-SXR (Gal-SXR) Gal4 reporter transient transfection assay in CV-1 cells
T2 sequence (O75469 107-434 limits assumed): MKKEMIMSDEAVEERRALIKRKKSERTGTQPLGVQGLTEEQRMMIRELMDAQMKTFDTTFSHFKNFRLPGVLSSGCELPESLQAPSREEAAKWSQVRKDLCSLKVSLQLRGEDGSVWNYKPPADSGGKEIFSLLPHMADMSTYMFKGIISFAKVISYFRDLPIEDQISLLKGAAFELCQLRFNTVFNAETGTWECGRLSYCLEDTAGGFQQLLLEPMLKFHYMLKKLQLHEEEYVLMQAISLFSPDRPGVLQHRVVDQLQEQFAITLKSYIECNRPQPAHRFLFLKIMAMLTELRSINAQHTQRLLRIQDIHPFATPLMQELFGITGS
Excerpt: Use of a standard model heterologous cell system to reconstitute SXR agonist and antagonist responsiveness allows SXR activity to be monitored in the absence of the metabolic events which may obscure the process being tested. Any suitable heterologous cell system may be used to test the activation of potential or known SXR nuclear receptor ligands, as long as the cells are capable of being transiently transfected with the appropriate DNA which expresses receptors, reporter genes, response elements, and the like. Cells which constitutively express one or more of the necessary genes may be used as well. Cell systems that are suitable for the transient expression of mammalian genes and which are amenable to maintenance in culture are well known to those skilled in the art. […] Suitable reporter gene constructs are well known to skilled workers in the fields of biochemistry and molecular biology. Activity of the reporter gene can be conveniently normalized to the internal control and the data plotted as fold activation relative to untreated cells.
The Gal4 reporter activity was normalized to the internal β-galactosidase control and the data plotted as fold activation relative to untreated cells. All transfections contained the Gal4 reporter and a β-galactosidase expression vector as an internal control.
Izbicka et al., Ann. Oncol.
Gal-PXR containing the ligand binding domain of mouse PXR (#AF031814) was obtained from Bruce Blumberg.
Transient Transffection Assays—CV-1 cells were grown and transfected as described.

human ERα = human ERα (Homo sapiens, UniProt P03372); settings: 10 μM paclitaxel
mouse PPARα = target: T3, mouse PPARα (Mus musculus, UniProt P23204); experiment: Nuclear receptor specificity transfection assay; type: cell-based; settings: 10 μM paclitaxel
T3 construct: expressed in transfected cells; host or cells: CV-1
T3 sequence (P23204 1-468): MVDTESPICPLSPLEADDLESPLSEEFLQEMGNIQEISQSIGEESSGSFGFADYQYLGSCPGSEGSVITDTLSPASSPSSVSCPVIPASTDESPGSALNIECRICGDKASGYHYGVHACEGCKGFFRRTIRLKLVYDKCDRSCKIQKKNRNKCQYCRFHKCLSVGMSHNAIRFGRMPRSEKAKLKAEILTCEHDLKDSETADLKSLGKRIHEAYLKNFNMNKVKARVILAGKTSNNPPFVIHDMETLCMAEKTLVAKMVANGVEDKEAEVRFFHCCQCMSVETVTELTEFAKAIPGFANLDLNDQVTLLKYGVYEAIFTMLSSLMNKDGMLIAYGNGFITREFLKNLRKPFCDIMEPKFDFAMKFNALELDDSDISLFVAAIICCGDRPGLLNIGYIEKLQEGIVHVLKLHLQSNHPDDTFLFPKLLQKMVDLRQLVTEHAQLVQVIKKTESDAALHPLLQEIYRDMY

CYP3A4 and CYP2C8 = settings: read-out: Km for degradation of paclitaxel by CYP3A4 and CYP2C8; cited from earlier work
[2] = system: MDR1 protein (P-glycoprotein); experiment: Western analysis with P-glycoprotein antibody of LS180 cells; type: cell-based, human; settings: 10 μM, 48 hours
Procedure: Western Blotting was performed according to the following methods. Human LS180 cells in log phase growth were treated for 48 hours with the compounds indicated in the pertinent Figures. The cells were harvested, washed with phosphate buffered saline (PBS) and homogenized using 12-15 strokes of a Wheaton teflon-glass homogenizer. Cell debris was removed by centrifugation at 1500×g for 10 minutes, and the resulting supernatant was sedimented at 150,000×g for one hour at 4° C. to pellet the membranes. The membrane pellets were resuspended in PBS containing 1 mM phenylmethylsulfonyl fluoride and protein concentrations were determined according to standard prior art methods. […] The membranes were blocked with 5% non-fat dry milk in PBS with 0.1% Tween-20 (PBS-T) before incubation with a 1:500 dilution of P-glycoprotein antibody (Ab-1, Oncogene Research Products, Boston, Mass.) in blocking buffer for six hours at room temperature. Following several washes with PBS-T, membranes were incubated with a 1:1000 dilution of horseradish peroxidase-conjugated secondary anti-rabbit IgG antibodies. (Santa Cruz Biotechnology, Santa Cruz, Calif.) in blocking buffer for one hour at room temperature.

mouse CARβ = target: T4, mouse CARβ (Mus musculus, UniProt O35627); experiment: Nuclear receptor specificity transfection assay / LXRE×3-TK-luc reporter with CARβ in CV-1 cells; type: cell-based; settings: 10 μM paclitaxel
T4 sequence (O35627 1-358): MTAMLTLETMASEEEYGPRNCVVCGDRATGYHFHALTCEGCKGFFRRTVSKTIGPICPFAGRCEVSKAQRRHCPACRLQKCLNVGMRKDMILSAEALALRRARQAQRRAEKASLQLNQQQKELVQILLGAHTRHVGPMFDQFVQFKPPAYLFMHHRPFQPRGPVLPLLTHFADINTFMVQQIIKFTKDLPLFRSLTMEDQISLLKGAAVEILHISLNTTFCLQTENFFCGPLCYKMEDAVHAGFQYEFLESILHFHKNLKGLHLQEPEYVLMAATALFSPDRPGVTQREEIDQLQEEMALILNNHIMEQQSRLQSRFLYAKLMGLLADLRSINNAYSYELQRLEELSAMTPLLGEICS

T1 sequence (P11473 whole entry): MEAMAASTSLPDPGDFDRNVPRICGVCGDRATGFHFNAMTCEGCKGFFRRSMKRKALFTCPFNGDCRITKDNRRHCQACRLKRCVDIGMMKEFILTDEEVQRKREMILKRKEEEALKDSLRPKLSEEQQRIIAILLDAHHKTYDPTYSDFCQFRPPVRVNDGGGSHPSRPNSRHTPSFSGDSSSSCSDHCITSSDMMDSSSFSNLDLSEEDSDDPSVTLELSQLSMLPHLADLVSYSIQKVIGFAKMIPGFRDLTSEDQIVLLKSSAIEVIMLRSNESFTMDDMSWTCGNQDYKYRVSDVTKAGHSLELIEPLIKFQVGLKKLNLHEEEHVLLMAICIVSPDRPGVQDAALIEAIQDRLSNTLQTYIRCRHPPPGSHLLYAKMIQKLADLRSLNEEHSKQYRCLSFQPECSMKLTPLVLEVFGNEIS
human ERα, sequence (P03372 whole entry): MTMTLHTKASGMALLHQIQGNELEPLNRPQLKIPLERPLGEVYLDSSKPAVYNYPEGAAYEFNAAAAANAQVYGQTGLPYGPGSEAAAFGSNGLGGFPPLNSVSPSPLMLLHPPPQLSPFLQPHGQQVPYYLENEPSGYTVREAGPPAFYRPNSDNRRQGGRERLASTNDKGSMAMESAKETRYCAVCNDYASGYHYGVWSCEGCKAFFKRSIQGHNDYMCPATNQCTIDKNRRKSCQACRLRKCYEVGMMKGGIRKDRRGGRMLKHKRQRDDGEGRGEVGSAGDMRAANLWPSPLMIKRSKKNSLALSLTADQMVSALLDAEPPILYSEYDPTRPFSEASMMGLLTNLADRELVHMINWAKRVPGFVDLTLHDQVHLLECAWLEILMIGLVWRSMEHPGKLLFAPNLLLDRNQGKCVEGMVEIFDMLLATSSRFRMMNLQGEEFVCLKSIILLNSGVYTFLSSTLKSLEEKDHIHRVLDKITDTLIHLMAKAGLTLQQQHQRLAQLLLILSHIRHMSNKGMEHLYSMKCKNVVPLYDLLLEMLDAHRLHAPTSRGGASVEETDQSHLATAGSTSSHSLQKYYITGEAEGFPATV

CC(=O)O[C@H]1C(=O)[C@@]2(C)[C@H]([C@H](OC(=O)c3ccccc3)[C@]3(O)C[C@H](OC(=O)[C@H](O)[C@@H](NC(=O)c4ccccc4)c4ccccc4)C(C)=C1C3(C)C)[C@]1(OC(C)=O)CO[C@@H]1C[C@@H]2O [paclitaxel]
effect on VDR reporter activity (human VDR): no effect
potential cytotoxic effects (CV-1 cells): minimal
EC50 [1]: ~5 µM
effect on ERα reporter activity (human ERα): no effect
effect on PPARα reporter activity (mouse PPARα): no effect
Km (CYP3A4 and CYP2C8): ~10 µM
induction of MDR1 protein (P-glycoprotein) expression [2]: much more effective than docetaxel
effect on CARβ reporter activity (mouse CARβ): no effect
